Test results reported in patent US10238747B2 (priority 2010, dated 2019).
Values joined by “and” are separate entries in the source; they are usually repeats but may differ in a detail not shown here. Equal entries are not always repeated.

How the values were obtained:
BALB/c and C57BL6 mice = details: mouse, in vivo
Dendritic Cells = assay type: cell-based, Balb/c mice
CIA model of RA = details: mouse, in vivo; cited from earlier work
CD4 = CD4 (Homo sapiens, UniProt P01730); details: T cell co-stimulator molecule; cited from earlier work
[1] = 2-8° C.

## DLLKNGERIEKVEGGGGLFGAIAGFIEGG [J-HA2 core 1]
BALB/c and C57BL6 mice
  primary response: antibody production (day 24 or 38) or cytokine responses (day 3, 10 and 24): very little response

## DLLKNGERIEKVEGGGNDATYQRTRALVRTG [J-NP]
BALB/c and C57BL6 mice
  serum IFN-y, secondary response (FIG. 2): sustained levels
  serum IFN-γ response, normalized to adjuvant control (FIG. 1): higher amounts
  serum IL-10, secondary response (FIG. 2): sustained levels
  serum IL-12 p40p70, secondary response (FIG. 2): sustained levels
  serum IL-12p40 response, normalized to adjuvant control (FIG. 1): higher for C57BL6 mice
  serum IL-12p70, secondary response (FIG. 2): sustained levels
  serum MCP-1 response, normalized to adjuvant control (FIG. 1): higher amounts

## lipopolysaccharide [LPS]
Dendritic Cells
  IL-12p70 Conc., R&D Systems (IL-12p70), Avg: 57.0 pg/mL and 78.5 pg/mL and 62.5 pg/mL
  TNF-a Conc., R&D Systems TNF-a, Avg: 5229.9 pg/mL and 3313.2 pg/mL and 3083.0 pg/mL
  TNF-a Conc., RayBio TNF-a, Avg: 3206.0 pg/mL and 2142.3 pg/mL and 2028.6 pg/mL

## DLLKNGERIEKVEGGGTGGKPGIAGFKGEQGPKGEP [CEL-2000]
Dendritic Cells
  IL-12p70 Conc., R&D Systems (IL-12p70), Avg: 67.9 pg/mL and 35.4 pg/mL and 58.2 pg/mL
CIA model of RA
  disease suppression: suppress disease over a 90 day period
  efficacy compared with Enbrel: more effective than Enbrel
  safety and tolerability: safe and well-tolerated
  serum IL-1 change: reduced
  serum IL-10 change: increased
  serum IL-12p40 change: decrease
  serum IL-12p70 change: increased
  serum MCP-1 change: reduced
  serum TNF-α change: reduced

## DLLKNGERIEKVEGGGYSVHQRIDVKDTKEALEKIEEEQNKSKKKA [JH]
Dendritic Cells
  TNF-a Conc., R&D Systems TNF-a, Avg: 905.7 pg/mL and 685.0 pg/mL and 830.9 pg/mL
  TNF-a Conc., RayBio TNF-a, Avg: 29.6 pg/mL

## (amino)-DGQEEKAGVVSTGLIGGG-(amide) (H-DGQEEKAGVVSTGLIGGG-NH2) [CEL-1000]
CD4
  binding to CD4: shown to bind to CD4
[1]
  stability of formulation (time extremely stable): over 2 years

## DLLKNGERIEKVEGGGLKSTQNAIDEITNKVN [J-HA2 core 2]
BALB/c and C57BL6 mice
  primary response: antibody production (day 24 or 38) or cytokine responses (day 3, 10 and 24): very little response

## DLLKNGERIEKVEGGGSLLTEVETPIRNEWGCRCNDSSD [J-M2e]
BALB/c and C57BL6 mice
  serum IFN-y, secondary response (FIG. 2): increase
  serum IFN-γ response, normalized to adjuvant control (FIG. 1): higher amounts
  serum IL-10, secondary response (FIG. 2): increase
  serum IL-12 p40p70, secondary response (FIG. 2): increase
  serum IL-12p40 response, normalized to adjuvant control (FIG. 1): higher for C57BL6 mice
  serum IL-12p70, secondary response (FIG. 2): increase
  serum MCP-1 response, normalized to adjuvant control (FIG. 1): higher amounts
